In ChEMBL document CHEMBL1146296, “Influence of an additional 2-amino substituent of the 1-aminoethyl pharmacophore group on the potency of rimantadine against influenza virus A” (Bioorg Med Chem Lett, 2007):
Calls of active or inactive are those of the source. The rule behind the calls is not given here.

Key:
[1] = tested on: Influenza A virus; experiment: Antiviral activity against influenza A virus (H3N2)-induced cytopathogenicity in MDCK cells by MTS method; type: functional, organism-based
[2] = tested on: MDCK; experiment: Cytotoxicity against MDCK cells; type: cell-based, Canis lupus familiaris; details: dog
[3] = tested on: Influenza B virus; experiment: Antiviral activity against influenza B virus; type: functional, organism-based
[4] = tested on: Influenza A virus; experiment: Antiviral activity against influenza A virus (H3N2) assessed as inhibition of viral replication; type: functional, organism-based

Compound	EC50 [1] [µM]	MTC [2] [µM]	Activity [3]	Activity [4]
CN1CC(=O)NCC1C12CC3CC(CC(C3)C1)C2 (stereo not drawn)	604	> 1007	inactive	–
O=C1CNC(C23CC4CC(CC(C4)C2)C3)CN1 (stereo not drawn)	91.8	> 1067	inactive	Active
C1CNC(C23CC4CC(CC(C4)C2)C3)C1.Cl (stereo not drawn)	51.3	1035	–	–
O=C1NCC(C23CC4CC(CC(C4)C2)C3)N1 (stereo not drawn)	72.6	> 1135	inactive	Active
Cl.NC12CC3CC(CC(C3)C1)C2 [AMANTADINE HYDROCHLORIDE]	49.1	> 1333	–	–
C1CNC(C23CC4CC(CC(C4)C2)C3)CN1.O=C(O)/C=C\C(=O)O (stereo not drawn)	24.1	> 553	inactive	Active
NCC(N)C12CC3CC(CC(C3)C1)C2.O=C(O)/C=C\C(=O)O (stereo not drawn)	18.3	> 586	inactive	Active
CN1CCN(C)C(C23CC4CC(CC(C4)C2)C3)C1.O=C(O)/C=C\C(=O)O (stereo not drawn)	351	> 520	inactive	–
CN1C(=O)NCC1C12CC3CC(CC(C3)C1)C2 (stereo not drawn)	269	> 1067	inactive	–
CNC(CN)C12CC3CC(CC(C3)C1)C2.O=C(O)/C=C\C(=O)O (stereo not drawn)	56.8	> 568	inactive	Active
CC(N)C12CC3CC(CC(C3)C1)C2.Cl (stereo not drawn) [RIMANTADINE HYDROCHLORIDE]	19.1	> 1160	–	–
C1CCC(C23CC4CC(CC(C4)C2)C3)NC1.Cl (stereo not drawn)	70.5	978	–	–
CN1CCNCC1C12CC3CC(CC(C3)C1)C2.O=C(O)/C=C\C(=O)O (stereo not drawn)	197	> 535	inactive	–
CN1CC(C23CC4CC(CC(C4)C2)C3)N(C)C1=O (stereo not drawn)	107	1007	inactive	–
